According to patent US10105357B2, “Indication of antibiotic drugs for preparation of cancer inhibition pharmaceutical composition” (LAUNX BIOMEDICAL CO., LTD., priority 2014, dated 2018):
Where two headings read alike, the source gives them in different places.

How the values were obtained:
cancer cell lines = experiment: Cell viability analysis (WST-1) on cancer cell lines; type: cell-based, human; details: drug 10 μM, 72 hours, WST-1; Table 3
[1] = system: HI650 (Lung Adenocarcinoma); experiment: Cell viability analysis, lung cancer HI650; type: cell-based, human; details: for viability at 10 µM: Homo sapiens, NCI-H1650, 72 h
[2] = system: A549 (Lung Adenocarcinoma); experiment: Cell viability analysis, lung cancer A549; type: cell-based, human; details: for viability at 10 µM: Homo sapiens, A549, 72 h
[3] = system: AGS (Gastric Adenocarcinoma); experiment: Cell viability analysis, gastric cancer AGS; type: cell-based, human; details: for viability at 10 µM: Homo sapiens, 72 h
[4] = system: MKN-45 (Gastric Adenocarcinoma); experiment: Cell viability analysis, gastric cancer MKN-45; type: cell-based, human; details: for viability at 10 µM: Homo sapiens, MKN-45, 72 h
[5] = system: HepG2 (Hepatocellular Carcinoma); experiment: Cell viability analysis, hepatic cancer HepG2; type: cell-based, human; details: for viability at 10 µM: Homo sapiens, HepG2, 72 h
[6] = system: Hep3B (hepatocellular carcinoma); experiment: Cell viability analysis, hepatic cancer Hep3B; type: cell-based, human
[7] = system: LoVo (Colorectal Adenocarcinoma); experiment: Cell viability analysis, colon cancer LoVo; type: cell-based, human; details: for viability at 10 µM: Homo sapiens, LoVo, 72 h
[8] = system: A375 (Amelanotic Melanoma); experiment: Cell viability analysis, skin cancer A375; type: cell-based, human; details: for viability at 10 µM: Homo sapiens, A-375, 72 h
[9] = system: BCC (basal cell carcinoma); experiment: Cell viability analysis, skin cancer BCC; type: cell-based, human
[10] = system: HeLa (Cervix Adenocarcinoma); experiment: Cell viability analysis, cervical cancer HeLa; type: cell-based, human; details: for viability at 10 µM: Homo sapiens, HeLa, 72 h
[11] = system: C-33A (Cervical carcinoma); experiment: Cell viability analysis, cervical cancer C-33A; type: cell-based, human
[12] = system: PC3 (p53−) (Prostate Adenocarcinoma); experiment: Cell viability analysis, prostate cancer PC3; type: cell-based, human; details: for viability at 10 µM: Homo sapiens, 72 h
[13] = system: TSGH-8301 (Urinary Bladder Carcinoma); experiment: Cell viability analysis, bladder cancer TSGH-8301; type: cell-based, human; details: for viability at 10 µM: Homo sapiens, 72 h
T24 = experiment: Cell viability analysis, bladder cancer T24; type: cell-based, human
[14] = system: MCF7 (Mammary Gland, Adenocarcinoma); experiment: Cell viability analysis, breast cancer MCF7; type: cell-based, human; details: for viability at 10 µM: Homo sapiens, MCF7, 72 h
[15] = system: MDA-MB-231 (Mammary Gland, Adenocarcinoma); experiment: Cell viability analysis, breast cancer MDA-MB-231; type: cell-based, human
BxPC-3 = experiment: Cell viability analysis, pancreatic cancer BxPC-3; type: cell-based, human
AsPC-1 = experiment: Cell viability analysis, pancreatic cancer AsPC-1; type: cell-based, human
NIH: OVCAR-3 = experiment: Cell viability analysis, ovarian cancer NIH: OVCAR-3; type: cell-based, human
TOV-21G = experiment: Cell viability analysis, ovarian cancer TOV-21G; type: cell-based, human
[16] = system: SAS (Tongue squamous cell carcinoma); experiment: Cell viability analysis, tongue cancer SAS; type: cell-based, human
U-2OS = experiment: Cell viability analysis, osteosarcoma U-2OS; type: cell-based, human
[17] = system: 786-O (Renal adenocarcinoma); experiment: Cell viability analysis, renal cancer 786-O; type: cell-based, human
[18] = system: HCT116 (p53+) (Colorectal Carcinoma)

SMILES: CC[C@H]1OC(=O)[C@H](C)[C@@H](O[C@H]2C[C@@](C)(OC)[C@@H](O)[C@H](C)O2)[C@H](C)[C@@H](O[C@@H]2O[C@H](C)C[C@H](N(C)C)[C@H]2O)[C@](C)(O)C[C@@H](C)CN(C)[C@H](C)[C@@H](O)[C@]1(C)O [Azithromycin Dihydrate]
- inhibition effect on different cancer cell lines (cancer cell lines): significant inhibition effect
- viability at 10 µM ([1]; read-out: The results of antibiotic drug inhibiting cancer cell lines (cell viability analysis), H1650, H1650, repeated experiment): 98.6%
- viability at 10 µM ([1]; read-out: cell viability (survival rate), H1650, drug 10 μM, 72 hours, WST-1, OD450 nm): 61.3%
- viability at 10 µM ([2]; read-out: The results of antibiotic drug inhibiting cancer cell lines (cell viability analysis), A549, A549, repeated experiment): 66.3%
- viability at 10 µM ([2]; read-out: cell viability (survival rate), A549, drug 10 μM, 72 hours, WST-1, OD450 nm): 41.4%
- viability at 10 µM ([3]; read-out: The results of antibiotic drug inhibiting cancer cell lines (cell viability analysis), AGS, repeated experiment): 77.2%
- viability at 10 µM ([3]; read-out: cell viability (survival rate), AGS, drug 10 μM, 72 hours, WST-1, OD450 nm): 72.7%
- viability at 10 µM ([4]; read-out: The results of antibiotic drug inhibiting cancer cell lines (cell viability analysis), MKN-45, MKN-45, repeated experiment): 95.8%
- viability at 10 µM ([4]; read-out: cell viability (survival rate), MKN-45, drug 10 μM, 72 hours, WST-1, OD450 nm): 51.2%
- viability at 10 µM ([5]; read-out: The results of antibiotic drug inhibiting cancer cell lines (cell viability analysis), HepG2, HepG2, repeated experiment): 91.4%
- viability at 10 µM ([5]; read-out: cell viability (survival rate), HepG2, drug 10 μM, 72 hours, WST-1, OD450 nm): 81.1%
- viability at 10 µM ([6]; Homo sapiens, Hep3B, 72 h, read-out: The results of antibiotic drug inhibiting cancer cell lines (cell viability analysis), Hep3B): 109%
- viability at 10 µM ([7]; read-out: The results of antibiotic drug inhibiting cancer cell lines (cell viability analysis), LoVo, repeated experiment): 79.2%
- viability at 10 µM ([7]; read-out: cell viability (survival rate), LoVo, drug 10 μM, 72 hours, WST-1, OD450 nm): 65.3%
- viability at 10 µM ([8]; read-out: The results of antibiotic drug inhibiting cancer cell lines (cell viability analysis), A375, A375, repeated experiment): 97.4%
- viability at 10 µM ([8]; read-out: cell viability (survival rate), A375, drug 10 μM, 72 hours, WST-1, OD450 nm): 50.8%
- viability at 10 µM ([9]; Homo sapiens, 72 h, read-out: The results of antibiotic drug inhibiting cancer cell lines (cell viability analysis), BCC): 70.6%
- viability at 10 µM ([10]; read-out: The results of antibiotic drug inhibiting cancer cell lines (cell viability analysis), HeLa, repeated experiment): 105%
- viability at 10 µM ([10]; read-out: cell viability (survival rate), HeLa, drug 10 μM, 72 hours, WST-1, OD450 nm): 55.6%
- viability at 10 µM ([11]; Homo sapiens, C-33-A, 72 h, read-out: The results of antibiotic drug inhibiting cancer cell lines (cell viability analysis), C-33A): 92.6%
- viability at 10 µM ([12]; read-out: The results of antibiotic drug inhibiting cancer cell lines (cell viability analysis), PC-3, PC-3, repeated experiment): 97.2%
- viability at 10 µM ([12]; read-out: cell viability (survival rate), PC3, drug 10 μM, 72 hours, WST-1, OD450 nm): 43%
- viability at 10 µM ([13]; read-out: The results of antibiotic drug inhibiting cancer cell lines (cell viability analysis), TSGH-8301, TSGH-8301, repeated experiment): 119%
- viability at 10 µM ([13]; read-out: cell viability (survival rate), TSGH, drug 10 μM, 72 hours, WST-1, OD450 nm): 39.4%
- viability at 10 µM (T24; Homo sapiens, T-24, 72 h, read-out: The results of antibiotic drug inhibiting cancer cell lines (cell viability analysis), T24): 112%
- viability at 10 µM ([14]; read-out: The results of antibiotic drug inhibiting cancer cell lines (cell viability analysis), MCF-7, MCF-7, repeated experiment): 62.3%
- viability at 10 µM ([14]; read-out: cell viability (survival rate), MCF7, drug 10 μM, 72 hours, WST-1, OD450 nm): 36.4%
- viability at 10 µM ([15]; Homo sapiens, MDA-MB-231, 72 h, read-out: The results of antibiotic drug inhibiting cancer cell lines (cell viability analysis), MDA-MB231): 97.8%
- viability at 10 µM (BxPC-3; Homo sapiens, BXPC-3, 72 h, read-out: The results of antibiotic drug inhibiting cancer cell lines (cell viability analysis), BxPC-3): 71.3%
- viability at 10 µM (AsPC-1; Homo sapiens, ASPC1, 72 h, read-out: The results of antibiotic drug inhibiting cancer cell lines (cell viability analysis), AsPC-1): 75.3%
- viability at 10 µM (NIH: OVCAR-3; Homo sapiens, OVCAR-3, 72 h, read-out: The results of antibiotic drug inhibiting cancer cell lines (cell viability analysis), NIH-OVCAR-3): 94%
- viability at 10 µM (TOV-21G; Homo sapiens, TOV21G, 72 h, read-out: The results of antibiotic drug inhibiting cancer cell lines (cell viability analysis), TOV-21G): 89.6%
- viability at 10 µM ([16]; Homo sapiens, 72 h, read-out: The results of antibiotic drug inhibiting cancer cell lines (cell viability analysis), SAS): 50%
- viability at 10 µM (U-2OS; Homo sapiens, U2OS, 72 h, read-out: The results of antibiotic drug inhibiting cancer cell lines (cell viability analysis), U2OS): 70.3%
- viability at 10 µM ([17]; Homo sapiens, 786-0, 72 h, read-out: The results of antibiotic drug inhibiting cancer cell lines (cell viability analysis), 786-O): 91%
- viability [18]: 80.7%

SMILES: Cc1cc(C2CCCCC2)n(O)c(=O)c1.NCCO [Ciclopirox ethanolamine]
- inhibition effect on different cancer cell lines (cancer cell lines): significant inhibition effect
- The results of antibiotic drug inhibiting cancer cell lines (cell viability analysis), H1650 [1]: 53.76
- The results of antibiotic drug inhibiting cancer cell lines (cell viability analysis), A549 [2]: 23.67
- The results of antibiotic drug inhibiting cancer cell lines (cell viability analysis), AGS [3]: 36.59
- The results of antibiotic drug inhibiting cancer cell lines (cell viability analysis), MKN-45 [4]: 72.97
- The results of antibiotic drug inhibiting cancer cell lines (cell viability analysis), HepG2 [5]: 102.4
- The results of antibiotic drug inhibiting cancer cell lines (cell viability analysis), Hep3B [6]: 48.66
- The results of antibiotic drug inhibiting cancer cell lines (cell viability analysis), LoVo [7]: 65.53
- The results of antibiotic drug inhibiting cancer cell lines (cell viability analysis), A375 [8]: 21.76
- The results of antibiotic drug inhibiting cancer cell lines (cell viability analysis), BCC [9]: 29.08
- The results of antibiotic drug inhibiting cancer cell lines (cell viability analysis), HeLa [10]: 41.02
- The results of antibiotic drug inhibiting cancer cell lines (cell viability analysis), C-33A [11]: 42.12
- The results of antibiotic drug inhibiting cancer cell lines (cell viability analysis), PC-3 [12]: 54.81
- The results of antibiotic drug inhibiting cancer cell lines (cell viability analysis), TSGH-8301 [13]: 43.63
- The results of antibiotic drug inhibiting cancer cell lines (cell viability analysis), T24 (T24): 41.2
- The results of antibiotic drug inhibiting cancer cell lines (cell viability analysis), MCF-7 [14]: 53.67
- The results of antibiotic drug inhibiting cancer cell lines (cell viability analysis), MDA-MB231 [15]: 48.29
- The results of antibiotic drug inhibiting cancer cell lines (cell viability analysis), BxPC-3 (BxPC-3): 47.7
- The results of antibiotic drug inhibiting cancer cell lines (cell viability analysis), AsPC-1 (AsPC-1): 46.57
- The results of antibiotic drug inhibiting cancer cell lines (cell viability analysis), NIH-OVCAR-3 (NIH: OVCAR-3): 66.99
- The results of antibiotic drug inhibiting cancer cell lines (cell viability analysis), TOV-21G (TOV-21G): 28.95
- The results of antibiotic drug inhibiting cancer cell lines (cell viability analysis), SAS [16]: 31.98
- The results of antibiotic drug inhibiting cancer cell lines (cell viability analysis), U2OS (U-2OS): 51.75
- The results of antibiotic drug inhibiting cancer cell lines (cell viability analysis), 786-O [17]: 18.27
- viability [18]: 29.5%
